Each molecule was assayed on FLAP (5-lipoxygenase activating protein) (assay: In vitro binding test: displacement of [3H]-7-chloro-3-(5-((3-fluoropyridin-2-yl)methoxy)-2-methylphenyl)-3,4-dihydroquinazolin-2(1H)-one from Sf9 microsome fractions). Conditions: Sf9 microsome fractions expressing FLAP; 100% = radioligand binding with 10 μM sodium 3-(3-(tert-butylsulfanyl)-1-(4-chlorobenzyl)-5-isopropyl-1H-indol-2-yl)-2,2-dimethylpropanoate, 0% = DMSO; test compound concentration not given.
Set-up: species or system human and mouse
In short: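 Sf9 microsomes expressing human or mouse FLAP (2 μg/mL) preincubated with compound 10 min at room temperature, then 120 nM tritiated quinazolinone ligand added for 60 min; buffer 100 mM Tris-HCl pH 7.5 with NaCl, EDTA, DTT, glycerol, Tween20. Bound ligand filtered and counted by scintillation; 10 μM indole propanoate defines 100% inhibition, DMSO 0%.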

| Structure (SMILES) | inhibitory rate (%) |
| --- | --- |
| Cc1cc(I)c(OCc2ncccc2F)cc1N1Cc2ccc(Cl)cc2NC1=O [Example 304, 7-chloro-3-(5-((3-fluoropyridin-2-yl)methoxy)-4-iodo-2-methylphenyl)-3,4-dihydroquinazolin-2(1H)-one] | 64% |
| O=C1Nc2ccccc2CN1c1cc(OCc2ncccc2F)ccc1CN1CCCC1 [Example 306, 3-(5-((3-fluoropyridin-2-yl)methoxy)-2-(pyrrolidin-1-ylmethyl)phenyl)-3,4-dihydroquinazolin-2(1H)-one] | 74% |
| Cc1ccc(OCc2c(F)cccc2F)cc1N1Cc2[nH]ncc2NC1=O [Example 309, 6-(5-((2,6-difluorobenzyl)oxy)-2-methylphenyl)-1,4,6,7-tetrahydro-5H-pyrazolo[4,3-d]pyrimidin-5-one] | 51% |
| Cc1ccc(OCc2c(F)cccc2F)cc1N1Cc2cnn(C)c2NC1=O [Example 311, 5-(5-((2,6-difluorobenzyl)oxy)-2-methylphenyl)-1-methyl-1,4,5,7-tetrahydro-6H-pyrazolo[3,4-d]pyrimidin-6-one] | 69% |
| O=C1Nc2ccccc2CN1c1cc(OCc2ncccc2F)ccc1CNC1CC1 [Example 312, 3-(2-((cyclopropylamino)methyl)-5-((3-fluoropyridin-2-yl)methoxy)phenyl)-3,4-dihydroquinazolin-2(1H)-one] | 86% |
| O=C1Nc2ccccc2CN1c1cc(OCc2ncccc2F)ccc1CN1CCOCC1 [Example 313, 3-(5-((3-fluoropyridin-2-yl)methoxy)-2-(morpholin-4-ylmethyl)phenyl)-3,4-dihydroquinazolin-2(1H)-one] | 64% |
| CCCN1CCN(Cc2ccc(OCc3ncccc3F)cc2N2Cc3ccccc3NC2=O)CC1 [Example 314, 3-(5-((3-fluoropyridin-2-yl)methoxy)-2-((4-propylpiperazin-1-yl)methyl)phenyl)-3,4-dihydroquinazolin-2(1H)-one] | 58% |

Continued, values first:

| inhibitory rate (%) | Structure (SMILES) |
| --- | --- |
| 104% | Cc1ccc(OCc2ncccc2F)cc1N1Cc2ccc(C(=O)N(C)C3CC3)cc2NC1=O [Example 302, N-cyclopropyl-3-(5-((3-fluoropyridin-2-yl)methoxy)-2-methylphenyl)-N-methyl-2-oxo-1,2,3,4-tetrahydroquinazoline-7-carboxamide] |
| 108% | Cc1ccc(OCc2ncccc2F)cc1N1Cc2ccc(C(=O)NCC(F)(F)F)cc2NC1=O [Example 303, 3-(5-((3-fluoropyridin-2-yl)methoxy)-2-methylphenyl)-2-oxo-N-(2,2,2-trifluoroethyl)-1,2,3,4-tetrahydroquinazoline-7-carboxamide] |
| 103% | Cc1ccc(OCc2ncccc2F)cc1N1Cc2c(O)cccc2NC1=O [Example 305, 3-(5-((3-fluoropyridin-2-yl)methoxy)-2-methylphenyl)-5-hydroxy-3,4-dihydroquinazolin-2(1H)-one] |
| 100% | COc1nccc2c1CN(c1cc(OCc3ncccc3F)ccc1C)C(=O)N2 [Example 307, 3-(5-((3-fluoropyridin-2-yl)methoxy)-2-methylphenyl)-5-methoxy-3,4-dihydropyrido[4,3-d]pyrimidin-2(1H)-one] |
| 85% | COc1cccc2c1CN(c1cc(OCc3ncccc3F)ccc1C)C(=O)N2 [Example 308, 3-(5-((3-fluoropyridin-2-yl)methoxy)-2-methylphenyl)-5-methoxy-3,4-dihydroquinazolin-2(1H)-one] |
| 95% | Cc1ccc(OCc2ncccc2F)cc1N1Cc2c(cc[nH]c2=O)NC1=O [Example 310, 3-(5-((3-fluoropyridin-2-yl)methoxy)-2-methylphenyl)-4,6-dihydropyrido[4,3-d]pyrimidine-2,5(1H,3H)-dione] |
| 103% | Cc1ccc(OCc2ncccc2F)cc1N1Cc2c(Br)cncc2NC1=O [Example 315, 5-bromo-3-(5-((3-fluoropyridin-2-yl)methoxy)-2-methylphenyl)-3,4-dihydropyrido[3,4-d]pyrimidin-2(1H)-one] |

From patent US20150299188A1, “HETEROCYCLIC COMPOUND” (priority 2012, published 2015)
